# According to patent US20230295234A1, “ANTIMICROBIAL PEPTIDOMIMETICS” (SPEXIS AG, priority 2020, published 2023):
# Bridge positions count the residues as written; N and C are the ends. Square brackets hold non-standard residues; d marks the D form. Peptide text beside a SMILES is read from it. Pro(4R-NH2) = N[C@H]1CN[C@H](C(=O)O)C1; Gly(N-2-aminoethyl) = NCCNCC(=O)O; Cha = N[C@@H](CC1CCCCC1)C(=O)O; Gly(N(CH2)3NH2) = NCCCNCC(=O)O; Pen = CC(C)(S)[C@H](N)C(=O)O; dDab = NCC[C@@H](N)C(=O)O; Dab = NCC[C@H](N)C(=O)O
# Experiments:
# [1] = test system: Klebsiella pneumoniae SSI3010; details: SSI3010
# Outline: (§1)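 Standardized inocula (0.5 McFarland in saline, then diluted in MHII broth to approximately 5×10^5 CFU/mL) were exposed to two-fold dilution series of each peptide in the presence of polysorbate 80 (0.002% final).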
# [2] = test system: Escherichia coli MCR-1 Af 45; details: MCR-1 Af 45
# Outline: as §1
# [3] = test system: Escherichia coli ATCC 25922; details: ATCC 25922
# Outline: as §1
# [4] = test system: human red blood cells (hRBC); experiment: Hemolysis of human red blood cells; type: cell-based; details: red cells of human, 1 h
# Outline: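 Percent hemolysis is OD540 of peptide-treated supernatant relative to water-lysed cells. Each peptide was tested at 200 μg/mL against 20% (v/v) washed human erythrocytes. Incubation was 1 h at 37 °C, 300 rpm.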
Compound,Klebsiella pneumoniae SSI3010 MIC [1] [µg/mL],Escherichia coli MCR-1 Af 45 MIC [2] [µg/mL],Escherichia coli ATCC 25922 MIC [3] [µg/mL],Hemolysis at 0.2 g/L [4] [%]
"CC[C@H](C)[C@H](NC(=O)[C@@H](NC(=O)[C@@H]1C[C@@H](N)CN1C(=O)[C@@H](NC(=O)[C@@H]1CCCN1)C(C)C)[C@@H](C)CC)C(=O)N[C@@H](Cc1ccc(O)cc1)C(=O)N[C@@H]1C(=O)N[C@@H](CC(N)=O)C(=O)N[C@@H](CCCNC(=N)N)C(=O)N[C@@H](CCN)C(=O)N[C@@H]([C@@H](C)O)C(=O)N[C@H](CCN)C(=O)N[C@@H](CCCCN)C(=O)N[C@H](C(=O)N[C@@H](CCN)C(=O)N[C@@H](CCCNC(=N)N)C(=O)N[C@@H](CC2CCCCC2)C(=O)O)CSSC1(C)C [Example 19, Pro-Val-Pro((4R)NH2)-Ile-Ile-Tyr-Pen-Asn-Arg-Dab-Thr-^DDab-Lys-Cys-Dab-Arg-Cha] (HELM PEPTIDE1{P.V.[N[C@@H]1C[C@@H](C(=O)[*:2])N([*:1])C1].I.I.Y.[Pen].N.R.[Dab].T.[NCC[C@@H](N[*:1])C(=O)[*:2]].K.C.[Dab].R.[Cha]}$PEPTIDE1,PEPTIDE1,7:R3-14:R3$$$V2.0)",0.0625,≤0.03125,0.0625,0
"CC[C@H](C)[C@H](NC(=O)[C@@H](NC(=O)[C@@H]1C[C@@H](N)CN1C(=O)[C@@H](NC(=O)[C@@H]1C[C@@H](N)CN1)C(C)C)[C@@H](C)CC)C(=O)N[C@@H](Cc1ccc(O)cc1)C(=O)N[C@@H]1C(=O)N[C@@H](CC(N)=O)C(=O)N[C@@H](CCCNC(=N)N)C(=O)N[C@@H](CCN)C(=O)N[C@@H]([C@@H](C)O)C(=O)N[C@H](CCN)C(=O)N[C@@H](CCCCN)C(=O)N[C@H](C(=O)N[C@@H](CCN)C(=O)N[C@@H](CCCNC(=N)N)C(=O)N[C@@H](CC2CCCCC2)C(=O)O)CSSC1(C)C [Example 20, Pro((4R)NH2)-Val-Pro((4R)NH2)-Ile-Ile-Tyr-Pen-Asn-Arg-Dab-Thr-^DDab-Lys-Cys-Dab-Arg-Cha] (H-[Pro(4R-NH2)]V[Pro(4R-NH2)]IIY[Pen]NR[Dab]T[dDab]KC[Dab]R[Cha]-OH; disulfide 7-14)",0.125,≤0.03125,≤0.03125,1
"CC[C@H](C)[C@H](NC(=O)CN(CCN)C(=O)[C@@H](NC(=O)CNCCN)C(C)C)C(=O)N[C@H](C(=O)N[C@@H](Cc1ccc(O)cc1)C(=O)N[C@@H]1C(=O)N[C@@H](CC(N)=O)C(=O)N[C@@H](CCCNC(=N)N)C(=O)N[C@@H](CCN)C(=O)N[C@@H]([C@@H](C)O)C(=O)N[C@H](CCN)C(=O)N[C@@H](CCCCN)C(=O)N[C@H](C(=O)N[C@@H](CCN)C(=O)N[C@@H](CCCNC(=N)N)C(=O)N[C@@H](CC2CCCCC2)C(=O)O)CSSC1(C)C)[C@@H](C)CC [Example 21, Ndab-Val-Ndab-Ile-Ile-Tyr-Pen-Asn-Arg-Dab-Thr-^DDab-Lys-Cys-Dab-Arg-Cha] (H-[Gly(N-2-aminoethyl)]V[Gly(N-2-aminoethyl)]IIY[Pen]NR[Dab]T[dDab]KC[Dab]R[Cha]-OH; disulfide 7-14)",0.25,≤0.03125,0.0625,0
"CC[C@H](C)[C@H](NC(=O)CN(CCCN)C(=O)[C@@H](NC(=O)CNCCCN)C(C)C)C(=O)N[C@H](C(=O)N[C@@H](Cc1ccc(O)cc1)C(=O)N[C@@H]1C(=O)N[C@@H](CC(N)=O)C(=O)N[C@@H](CCCNC(=N)N)C(=O)N[C@@H](CCN)C(=O)N[C@@H]([C@@H](C)O)C(=O)N[C@H](CCN)C(=O)N[C@@H](CCCCN)C(=O)N[C@H](C(=O)N[C@@H](CCN)C(=O)N[C@@H](CCCNC(=N)N)C(=O)N[C@@H](CC2CCCCC2)C(=O)O)CSSC1(C)C)[C@@H](C)CC [Example 22, Norn-Val-Norn-Ile-Ile-Tyr-Pen-Asn-Arg-Dab-Thr-^DDab-Lys-Cys-Dab-Arg-Cha] (H-[Gly(N(CH2)3NH2)]V[Gly(N(CH2)3NH2)]IIY[Pen]NR[Dab]T[dDab]KC[Dab]R[Cha]-OH; disulfide 7-14)",0.0625,≤0.03125,0.0625,0
"CC[C@H](C)[C@H](NC(=O)[C@@H](NC(=O)[C@@H]1C[C@@H](N)CN1C(=O)[C@@H](NC(=O)[C@@H]1C[C@@H](N)CN1)C(C)C)[C@@H](C)CC)C(=O)N[C@@H](Cc1ccc(O)cc1)C(=O)N[C@@H]1C(=O)N[C@@H](CC(N)=O)C(=O)N[C@@H](CCCNC(=N)N)C(=O)N[C@@H](CCN)C(=O)N[C@@H]([C@@H](C)O)C(=O)N[C@H](CCN)C(=O)N[C@@H](CCCCN)C(=O)N[C@H](C(=O)N[C@@H](CCC(N)=O)C(=O)N[C@@H](CCCNC(=N)N)C(=O)N[C@@H](Cc2ccc(O)cc2)C(=O)O)CSSC1(C)C [Example 23, Pro((4R)NH2)-Val-Pro((4R)NH2)-Ile-Ile-Tyr-Pen-Asn-Arg-Dab-Thr-^DDab-Lys-Cys-Gln-Arg-Tyr] (H-[Pro(4R-NH2)]V[Pro(4R-NH2)]IIY[Pen]NR[Dab]T[dDab]KCQRY-OH; disulfide 7-14)",0.25,0.25,0.25,0
"CC[C@H](C)[C@H](NC(=O)[C@@H](NC(=O)[C@@H]1CCCN1C(=O)[C@@H](NC(=O)[C@@H]1C[C@@H](N)CN1)C(C)C)[C@@H](C)CC)C(=O)N[C@@H](Cc1ccc(O)cc1)C(=O)N[C@@H]1C(=O)N[C@@H](CC(N)=O)C(=O)N[C@@H](CCCNC(=N)N)C(=O)N[C@@H](CCN)C(=O)N[C@@H]([C@@H](C)O)C(=O)N[C@H](CCN)C(=O)N[C@@H](CCCCN)C(=O)N[C@H](C(=O)N[C@@H](CCN)C(=O)N[C@@H](CCCNC(=N)N)C(=O)N[C@@H](Cc2ccc(O)cc2)C(=O)O)CSSC1(C)C [Example 24, Pro(4R)NH2)-Val-Pro-Ile-Ile-Tyr-Pen-Asn-Arg-Dab-Thr-^DDab-Lys-Cys-Dab-Arg-Tyr] (HELM PEPTIDE1{[N[C@H]1CN[C@H](C(=O)[*:2])C1].V.P.I.I.Y.[Pen].N.R.[Dab].T.[NCC[C@@H](N[*:1])C(=O)[*:2]].K.C.[Dab].R.Y}$PEPTIDE1,PEPTIDE1,7:R3-14:R3$$$V2.0)",0.25,0.125,0.125,0
"CC[C@H](C)[C@H](NC(=O)[C@@H](NC(=O)[C@@H]1C[C@@H](N)CN1C(=O)[C@@H](NC(=O)[C@@H]1CCCN1)C(C)C)[C@@H](C)CC)C(=O)N[C@@H](Cc1ccc(O)cc1)C(=O)N[C@@H]1C(=O)N[C@@H](CC(N)=O)C(=O)N[C@@H](CCCNC(=N)N)C(=O)N[C@@H](CCN)C(=O)N[C@@H]([C@@H](C)O)C(=O)N[C@H](CCN)C(=O)N[C@@H](CCCCN)C(=O)N[C@H](C(=O)N[C@@H](CCN)C(=O)N[C@@H](CCCNC(=N)N)C(=O)N[C@@H](Cc2ccc(O)cc2)C(=O)O)CSSC1(C)C [Example 25, Pro-Val-Pro((4R)NH2)-Ile-Ile-Tyr-Pen-Asn-Arg-Dab-Thr-^DDab-Lys-Cys-Dab-Arg-Tyr] (HELM PEPTIDE1{P.V.[N[C@@H]1C[C@@H](C(=O)[*:2])N([*:1])C1].I.I.Y.[Pen].N.R.[Dab].T.[NCC[C@@H](N[*:1])C(=O)[*:2]].K.C.[Dab].R.Y}$PEPTIDE1,PEPTIDE1,7:R3-14:R3$$$V2.0)",0.0625,≤0.03125,≤0.03125,0
"CC[C@H](C)[C@H](NC(=O)[C@@H](NC(=O)[C@@H]1C[C@@H](N)CN1C(=O)[C@@H](NC(=O)[C@@H]1C[C@@H](N)CN1)C(C)C)[C@@H](C)CC)C(=O)N[C@@H](Cc1ccc(O)cc1)C(=O)N[C@@H]1C(=O)N[C@@H](CC(N)=O)C(=O)N[C@@H](CCCNC(=N)N)C(=O)N[C@@H](CCN)C(=O)N[C@@H]([C@@H](C)O)C(=O)N[C@H](CCN)C(=O)N[C@@H](CCCCN)C(=O)N[C@H](C(=O)N[C@@H](CCN)C(=O)N[C@@H](CCCNC(=N)N)C(=O)N[C@@H](Cc2ccc(O)cc2)C(=O)O)CSSC1(C)C [Example 26, Pro((4R)NH2)-Val-Pro((4R)NH2)-Ile-Ile-Tyr-Pen-Asn-Arg-Dab-Thr-^DDab-Lys-Cys-Dab-Arg-Tyr] (H-[Pro(4R-NH2)]V[Pro(4R-NH2)]IIY[Pen]NR[Dab]T[dDab]KC[Dab]RY-OH; disulfide 7-14)",0.25,0.125,0.25,0
"CC[C@H](C)[C@H](NC(=O)[C@@H](NC(=O)[C@@H]1CCCN1C(=O)[C@@H](NC(=O)CNCCN)C(C)C)[C@@H](C)CC)C(=O)N[C@@H](Cc1ccc(O)cc1)C(=O)N[C@@H]1C(=O)N[C@@H](CC(N)=O)C(=O)N[C@@H](CCCNC(=N)N)C(=O)N[C@@H](CCN)C(=O)N[C@@H]([C@@H](C)O)C(=O)N[C@H](CCN)C(=O)N[C@@H](CCCCN)C(=O)N[C@H](C(=O)N[C@@H](CCN)C(=O)N[C@@H](CCCNC(=N)N)C(=O)N[C@@H](Cc2ccc(O)cc2)C(=O)O)CSSC1(C)C [Example 27, Ndab-Val-Pro-Ile-Ile-Tyr-Pen-Asn-Arg-Dab-Thr-^DDab-Lys-Cys-Dab-Arg-Tyr] (HELM PEPTIDE1{[NCCNCC(=O)[*:2]].V.P.I.I.Y.[Pen].N.R.[Dab].T.[NCC[C@@H](N[*:1])C(=O)[*:2]].K.C.[Dab].R.Y}$PEPTIDE1,PEPTIDE1,7:R3-14:R3$$$V2.0)",0.125,0.0625,0.0625,0
